Measurements from ChEMBL document CHEMBL3137667, “[Drug-induced liver injury; fourteenth updated edition of the bibliographic database of liver injuries and related drugs]” (Gastroenterol Clin Biol, 2004).

Legend:
[1] = human
[2] = human; remark: listed apart in the source
[3] = human; remark: listed apart in the source
[4] = human; remark: listed apart in the source
[5] = human; remark: listed apart in the source
[6] = human, serum
[7] = human; remark: listed apart in the source
[8] = human; remark: listed apart in the source
[9] = human, serum, 4383 h
[10] = human; remark: listed apart in the source
[11] = Times to onset, minimal and maximal, observed in the indexed observations. [column 'DELAI' in source]; conditions: human
[12] = Highest frequency of moderate liver toxicity observed during clinical trials, expressed as a percentage. [column '% BIOL' in source]; conditions: human
[13] = Highest frequency of acute liver toxicity observed during clinical trials, expressed as a percentage. [column '% AIGUE' in source]; conditions: human
[14] = human; remark: listed apart in the source
[15] = human, serum; remark: listed apart in the source
[16] = Proposed mechanism(s) of liver damage. [column 'MEC' in source]; conditions: human
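Throughout, for Hepatotoxicity (association with vascular disease): count of indexed literature references reporting vascular liver injury in humans, e.g. peliosis hepatitis, hepatic veno-occlusive disease or Budd-Chiari syndrome.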
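Throughout, for Hepatotoxicity (benign tumour): value is a count of indexed literature references citing a benign tumour confirmed by histopathology.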
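Throughout, for Hepatotoxicity (choleostasis): human cholestatic liver injury, shown by histopathology or by peak ALT or AST elevation over alkaline phosphatase ratio below 2, value counts indexed literature reports.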
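Throughout, for Hepatotoxicity (chronic liver disease): chronic liver injury confirmed by histopathology or persistently raised serum aminotransferase activity beyond 6 months, value given as the count of indexed literature references.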
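Throughout, for Hepatotoxicity (cirrhosis): value is a count of indexed literature references reporting cirrhosis confirmed by histopathology.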
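Throughout, for Hepatotoxicity (cytolytic): human cytolytic liver injury, shown by histopathology or by a ratio above 5 of peak ALT or AST elevation to alkaline phosphatase elevation, value counts indexed references.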
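Throughout, for Hepatotoxicity (granulomatous hepatitis): value is a count of indexed literature references reporting granulomatous liver disease confirmed by histopathology.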
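Throughout, for Hepatotoxicity (malignant tumour): malignant tumour confirmed by histopathology, value gives the count of indexed literature references reporting it.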
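Throughout, for Hepatotoxicity (severe hepatitis): human clinical data: severe hepatitis, meaning potentially life-threatening liver failure or clinically observed cases, the value counts how many indexed literature references report it.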
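Throughout, for Hepatotoxicity (steatosis): steatosis confirmed by histopathology, value is the count of indexed references.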

Row | SMILES | Hepatotoxicity (severe hepatitis) [1] | Hepatotoxicity (malignant tumour) [2] | Hepatotoxicity (choleostasis) [3] | Hepatotoxicity (association with vascular disease) [4] | Hepatotoxicity (cytolytic) [5] | Hepatotoxicity (acute) [6] | Hepatotoxicity (benign tumour) [7] | Hepatotoxicity (granulomatous hepatitis) [8] | Hepatotoxicity (chronic liver disease) [9] | Hepatotoxicity (steatosis) [10] | Hepatotoxicity (time to onset) [11] | Hepatotoxicity (moderate) [12] [%] | Hepatotoxicity (acute) [13] [%] | Hepatotoxicity (cirrhosis) [14] | Hepatotoxicity (moderate) [15] | Hepatotoxicity (mechanism) [16] | also measured
1 | COc1cnc(NS(=O)(=O)c2ccc(N)cc2)nc1 | 0 | 0 | 1 | 0 | 0 | 2 | 0 | 0 | 0 | 0 | 10 days | 0 | 0 | 0 | 0 | Allergic | –
2 | CC(O)CCC(=O)c1ccoc1 (stereo not given) | 1 | 0 | 0 | 0 | 0 | 1 | 0 | 0 | 0 | 0 | 2 days - 8 days | 0 | 11.3 | 0 | 0 | Dose-dependant | –
3 | CCCc1nn(C)c2c(=O)[nH]c(-c3cc(S(=O)(=O)N4CCN(C)CC4)ccc3OCC)nc12 | 0 | 0 | 0 | 0 | 2 | 2 | 0 | 0 | 0 | 0 | 2 days - 4 months | 0 | 0 | 0 | 0 | Dose-dependant | –
4 | O=C(O)c1ccccc1O.O=C(O)c1ccccc1O.O=C(O)c1ccccc1O | – | 0 | – | 0 | – | 1 | 0 | – | 0 | 0 | 3 days | – | – | 0 | 0 | – | Hepatotoxicity (severe hepatitis) ([1]; Liver): 1; Hepatotoxicity (choleostasis) ([3]; Liver): 0; Hepatotoxicity (cytolytic) ([5]; Liver): 1; Hepatotoxicity (granulomatous hepatitis) ([8]; Liver): 0; Hepatotoxicity (moderate) ([12]; Liver): 0%; Hepatotoxicity (acute) ([13]; Liver): 0%; Hepatotoxicity (mechanism) ([16]; Liver): Allergic
5 | CNC=O | 2 | 0 | 0 | 0 | 1 | 4 | 0 | 0 | 0 | 0 | 3 days - 1 week | 75 | 0 | 0 | 13 | Dose-dependant | –
6 | CN1c2ccccc2C(NCCCCCCC(=O)O)c2ccc(Cl)cc2S1(=O)=O (stereo not given) [TIANEPTINE] | 0 | 0 | 2 | – | 3 | 4 | 0 | 0 | 0 | 1 | 1 week - 6 months | 0 | 0 | 0 | 0 | Reactive metabolite | –
